Experimental data reported in article PMC8452690, “Structural basis for small molecule targeting of Doublecortin Like Kinase 1 with DCLK1-IN-1” (Communications Biology, 2021).
Read-outs that look alike come from different tables or passages of the source. Marks after values point to notes of the source that are not given here.

How the values were obtained:
[1] = target: T1, DCLK1-FL1Δ WT (Homo sapiens, UniProt O15075); assay: SPR binding to immobilised DCLK1-FL1Δ WT (phosphorylated); conditions: for Kd: SPR, 18 °C, DCLK1 FL1Δ WT immobilised, mean ± SEM
T1 sequence (O15075 50-686 isoform O15075-2): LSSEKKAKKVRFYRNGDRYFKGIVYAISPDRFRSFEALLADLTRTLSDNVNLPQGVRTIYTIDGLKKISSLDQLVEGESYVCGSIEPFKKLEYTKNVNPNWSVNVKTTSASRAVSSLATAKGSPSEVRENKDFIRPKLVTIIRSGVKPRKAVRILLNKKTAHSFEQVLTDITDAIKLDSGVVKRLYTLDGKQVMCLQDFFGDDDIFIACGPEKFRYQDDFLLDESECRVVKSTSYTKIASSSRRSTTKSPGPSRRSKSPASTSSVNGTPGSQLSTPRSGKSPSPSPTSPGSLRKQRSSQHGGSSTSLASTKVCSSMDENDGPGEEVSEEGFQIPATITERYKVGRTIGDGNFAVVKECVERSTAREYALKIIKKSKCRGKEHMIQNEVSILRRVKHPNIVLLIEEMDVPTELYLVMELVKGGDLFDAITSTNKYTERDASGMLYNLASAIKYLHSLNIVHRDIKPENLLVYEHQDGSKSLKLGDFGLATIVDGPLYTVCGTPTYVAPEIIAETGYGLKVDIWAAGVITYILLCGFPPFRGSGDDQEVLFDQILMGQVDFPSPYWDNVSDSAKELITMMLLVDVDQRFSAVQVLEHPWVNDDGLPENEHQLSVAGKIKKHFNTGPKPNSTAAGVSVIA
Protocol: SPR studies were carried out on a Biacore 2000 instrument (Cytivia). Proteins were immobilised at 25 °C using standard amine coupling to a CM5 chip (Cytivia) in immobilisation buffer consisting of 10 mM HEPES pH 7.4, 150 mM NaCl, 1 mM TCEP, 0.005% Tween P20, 1% (v/v) DMSO. To the active flow, cells were coupled either DCLK1-FL1Δ D511N or WT to a final density of approximately 7000 RU, followed by surface deactivation with 1 M ethanolamine. For each protein, coupling was performed at a concentration of 2 µM protein in 10 mM sodium acetate buffer pH 4.0, 1% (v/v) DMSO final, in the presence 10 µM of the moderate affinity compound FMF-03-149-01 (IC50 ~400 nM)[28] to help to stabilise the kinase domain during immobilsiation at low pH. A blank immobilisation was performed on the reference flow cell.
Binding experiments were performed at 18 °C in running buffer consisting of 20 mM HEPES, pH 7.4, 150 mM NaCl, 1 mM tris(2-carboxyethyl)phosphine (TCEP), 0.005% (v/v) Tween-P20, and 2% (v/v) DMSO. Compounds (10 mM stocks in 100% DMSO) were diluted in DMSO to 500 µM (DCLK1-NEG) or 25 µM (all other compounds) then in running buffer (without DMSO) to achieve the starting concentration with a final DMSO concentration of 2% (v/v). Samples were then serially titrated in running buffer containing 2% (v/v) DMSO to prepare each final concentration series (seven-point, three-fold serial dilution, 10 µM−13.7 nM for DCLK1-NEG, or 500−0.68 nM for all other compounds). Solutions were injected in multi-cycle format (in duplicate) without regeneration (contact time 80 s, flow rate 75 μL/min, dissociation time 600 s), with an extra wash (50% DMSO) after each injection.
Steady-state/kinetic binding data were fitted using the S200 BIAevaluation software (GE Healthcare). Sensorgrams from reference surfaces and blank injections were subtracted from the raw data (double-referencing), followed by solvent correction. Kinetic rate constants (kon and koff values) were obtained by fitting to 1:1 Langmuir binding model. Reported binding data represent mean ± SEM for three or four independent experiments. The dissociative half-life life (t1/2) for each inhibitor complex with DCLK1 was calculated from the fitted dissociation rate constant (koff), according to the equation 1 (t1/2 = ln(2)/koff.)

[2] = target: T2, DCLK1-KD (residues 372-649) (Homo sapiens, UniProt O15075); assay: Thermal shift stability assay, DCLK1-KD; assay type: binding; conditions: compound titration 2.5 to 40 μM
T2 construct: the DCLK1 kinase domain (DCLK1-KD; residues 372-649) by carrying out thermal stability assays; 8XHis tag with TEV protease cleavage site (N); made in house; host or cells: Escherichia coli C41(DE3)
T2 sequence (O15075 372-649 isoform O15075-2): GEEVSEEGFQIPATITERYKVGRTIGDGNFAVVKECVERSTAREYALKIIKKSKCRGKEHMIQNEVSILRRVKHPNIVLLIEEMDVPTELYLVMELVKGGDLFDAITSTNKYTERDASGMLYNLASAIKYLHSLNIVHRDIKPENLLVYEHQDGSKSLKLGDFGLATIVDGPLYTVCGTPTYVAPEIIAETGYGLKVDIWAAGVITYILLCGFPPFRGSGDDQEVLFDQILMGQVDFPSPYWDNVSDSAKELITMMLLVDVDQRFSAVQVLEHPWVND
Protocol: DCLK1 proteins were diluted in 150 mM NaCl, 20 mM Tris pH 8.0, 1 mM DTT to […] final concentration and assayed with the appropriate concentration of inhibitor in a total reaction volume of 25 μL. SYPRO Orange (Molecular Probes) was used as a fluorescence probe and detected at 530 nm. The data shown are representative of two independent experiments.

kon, kinetic fitting [1]: 6 ± 2 1/Ms (x 10^5) | Kd ([1]; read-out: KD, kinetic fitting (1:1 binding model)): 0.083 ± 0.022 µM | Kd ([1]; read-out: KD, steady state fitting): 0.145 ± 0.035 µM | koff ([1]; read-out: koff, kinetic fitting): 0.04 ± 0.01 s⁻¹ | binding by shift in melting temperature (ΔTm) [2]: bind DCLK1-KD
SMILES: COc1cc(N2CCN(C)CC2)ccc1Nc1ncc2c(n1)N(C)c1ccccc1C(=O)N2CC(F)(F)F [DCLK1-IN-1]
